Read-outs that look alike come from different tables or passages of the source.

The target in assay [1] is T1, glutathione-S-transferase (GST) tagged LXRbeta LBD (ligand binding domain) (Homo sapiens, UniProt P55055).
T1 construct: purchased Invitrogen pv4658
T1 sequence (P55055 222-460 limits assumed): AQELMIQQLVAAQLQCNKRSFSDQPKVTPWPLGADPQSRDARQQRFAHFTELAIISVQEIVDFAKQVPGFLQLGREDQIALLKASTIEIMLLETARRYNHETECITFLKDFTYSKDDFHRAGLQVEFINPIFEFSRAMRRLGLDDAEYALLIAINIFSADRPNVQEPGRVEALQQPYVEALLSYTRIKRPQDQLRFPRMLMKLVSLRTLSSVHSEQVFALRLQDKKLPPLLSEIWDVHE
Kind of assay: LanthaScreen TR-FRET Liver X Receptor Coactivator Assay, LXR beta. To be noted: for EC50: LXR beta IP, potency (Inflection Point), compound-induced co-activator recruitment, TR-FRET; for Emax: read-out: LXR beta actiivty at max dose, efficacy (% Emax) in relation to reference dual agonist T0901317. The format is biochemical. The gist of the method:
(§1)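 Test ligands were combined with the receptor LBD, after which terbium-labelled anti-GST antibody and a fluorescein-tagged coactivator peptide were introduced together. Plates sat at room temperature, then time-resolved FRET was measured.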
Background: Time-resolved FRET reads energy transfer from a long-lived donor to a nearby acceptor.

The target of assay [2] is T2, glutathione-S-transferase (GST) tagged LXRalpha LBD (ligand binding domain) (Homo sapiens, UniProt Q13133).
T2 construct: purchased Invitrogen pv4655
T2 sequence (Q13133 209-447 limits assumed): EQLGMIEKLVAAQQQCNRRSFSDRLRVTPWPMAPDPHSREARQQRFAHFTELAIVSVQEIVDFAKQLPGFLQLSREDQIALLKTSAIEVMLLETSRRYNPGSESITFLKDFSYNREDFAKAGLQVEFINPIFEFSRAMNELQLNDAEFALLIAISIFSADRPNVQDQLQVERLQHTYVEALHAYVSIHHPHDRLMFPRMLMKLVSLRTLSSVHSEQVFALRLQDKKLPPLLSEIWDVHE
Kind of assay: biochemical. The gist of the method: as §1

[3] abbreviates: potency (Inflection Point), compound-induced co-activator recruitment, TR-FRET.
[4] abbreviates: read-out: LXR alpha actiivty at max dose, efficacy (% Emax) in relation to reference dual agonist T0901317.
Where [5] appears, read: LXR alpha IP, potency (Inflection Point), compound-induced co-activator recruitment, TR-FRET.
Setting [6] is: efficacy (% Emax) in relation to reference dual agonist T0901317, read-out: LXR alpha actiivty at max dose.
Where [7] appears, read: potency (Inflection Point), compound-induced co-activator recruitment, TR-FRET, read-out: LXR alpha IP.
[8] abbreviates: read-out: LXR alpha actiivty at max dose.

Take `CN(C)C(=O)c1ccc(OCCC2CC23CCN(C(=O)C2(c4cncnc4)CCC2)CC3)cc1Cl` (single isomer, unassigned) [Example 12-19, (S or R)-2-chloro-N,N-dimethyl-4-(2-(6-(1-(pyrimidin-5-yl)cyclobutanecarbonyl)-6-azaspiro[2.5]octan-1-yl)ethoxy)benzamide]: in assay [1], the EC50 turned out to be 426 nM and the Emax is 12%. In addition, the “LXR alpha IP” value in assay [2] (setting [3]) was “No IP”. In addition, in assay [2] (setting [4]), the Emax stood at 14%.

As to `CN(C)C(=O)c1ccc(OCCC2CC23CCN(C(=O)C(C)(C)c2cccc(Br)n2)CC3)cc1Cl` (single isomer, unassigned) [Example 12-20, (S or R)-4-(2-(6-(2-(6-bromopyridin-2-yl)-2-methylpropanoyl)-6-azaspiro[2.5]octan-1-yl)ethoxy)-2-chloro-N,N-dimethylbenzamide], the EC50 in assay [1] was 47 nM. The values for the Emax in assay [1] and in assay [2] (setting [4]) were 32% and 0%, respectively. For the same molecule, the “LXR alpha IP” value in assay [2] (setting [3]) was “No IP”.

For `CN(C)C(=O)c1ccc(OCC[C@@H]2CC23CCN(C(=O)[C@](N)(c2ccccc2)C(F)(F)F)CC3)cc1Cl` (single isomer, unassigned) [Example 12-21, 4-(2-((S or R)-6-((R or S)-2-amino-3,3,3-trifluoro-2-phenylpropanoyl)-6-azaspiro[2.5]octan-1-yl)ethoxy)-2-chloro-N,N-dimethylbenzamide], the EC50 in assay [1] is 42 nM; in assay [2] (setting [5]) it was 1400 nM. In addition, the Emax is 47% in assay [1] and 23% in assay [2] (setting [4]).

With `CC(C[C@H]1CC12CCN(C(=O)C1(c3ccccc3)CCC1)CC2)Oc1ccc(C(=O)N(C)C)c(Cl)c1` (single isomer, unassigned) [Example 13-1, 2-chloro-N,N-dimethyl-4-((S or R)-1-((R or S)-6-(1-phenylcyclobutanecarbonyl)-6-azaspiro[2.5]octan-1-yl)propan-2-yloxy)benzamide], the EC50 in assay [1] worked out at 87 nM; in assay [2] (setting [7]) it was 762 nM. The results for the Emax in assay [1] and in assay [2] (setting [6]) were 110% and 25%, respectively.

`CN(C)C(=O)c1ccc(OCCC[C@H]2CC23CCN(C(=O)[C@@](O)(c2ccccc2)C(F)(F)F)CC3)cc1Cl` (single isomer, unassigned) [Example 14-1, 2-chloro-N,N-dimethyl-4-(3-((S or R)-6-((S or R)-3,3,3-trifluoro-2-hydroxy-2-phenylpropanoyl)-6-azaspiro[2.5]octan-1-yl)propoxy)benzamide]: the EC50 in assay [1] came to 65 nM; in assay [2] (LXR alpha IP) it was 765 nM. Also, the values for the Emax in assay [1] and in assay [2] (setting [8]) were 99% and 9%, respectively.

`CN(C)C(=O)c1ccc(OCCCC2CC23CCN(C(=O)C2(c4ccccc4)CCCC2)CC3)cc1Cl` (single isomer, unassigned) [Example 14-2, (R or S)-2-chloro-N,N-dimethyl-4-(3-(6-(1-phenylcyclopentanecarbonyl)-6-azaspiro[2.5]octan-1-yl)propoxy)benzamide]: the EC50 in assay [1] was determined as 28 nM; in assay [2] (setting [5]) it was 424 nM. Moreover, the Emax was found to be 86% in assay [1] and 17% in assay [2] (setting [4]).

In assay [1], `COc1ccccc1[C@@](O)(C(=O)N1CCC2(CC1)C[C@H]2CCCOc1ccc(C(=O)N(C)C)c(Cl)c1)C(F)(F)F` (single isomer, unassigned) [Example 14-3, 2-chloro-N,N-dimethyl-4-(3-((R or S)-6-((R or S)-3,3,3-trifluoro-2-hydroxy-2-(2-methoxyphenyl)propanoyl)-6-azaspiro[2.5]octan-1-yl)propoxy)benzamide] returned an EC50 of 41 nM. For the same molecule, the results for the Emax in assay [1] and in assay [2] (setting [4]) were 81% and 6%, respectively. Besides, the “LXR alpha IP” value in assay [2] (setting [3]) is recorded as “No IP”.

The molecule `COc1cccc([C@](O)(C(=O)N2CCC3(CC2)C[C@H]3CCCOc2ccc(C(=O)N(C)C)c(Cl)c2)C(F)(F)F)c1` (single isomer, unassigned) [Example 14-4, 2-chloro-N,N-dimethyl-4-(3-((R or S)-6-((S or R)-3,3,3-trifluoro-2-hydroxy-2-(3-methoxyphenyl)propanoyl)-6-azaspiro[2.5]octan-1-yl)propoxy)benzamide] came in with an EC50 in assay [1] of 83 nM. The Emax in assay [1] was 80%; in assay [2] (setting [4]), 0%. Besides, the “LXR alpha IP” value in assay [2] (setting [3]) is “No IP”.

With `COc1ccccc1[C@@](O)(C(=O)N1CCC2(CC1)C[C@@H]2CCCOc1ccc(C(=O)N(C)C)c(Cl)c1)C(F)(F)F` (single isomer, unassigned) [Example 14-5, 2-chloro-N,N-dimethyl-4-(3-((S or R)-6-((R or S)-3,3,3-trifluoro-2-hydroxy-2-(2-methoxyphenyl)propanoyl)-6-azaspiro[2.5]octan-1-yl)propoxy)benzamide], the EC50 in assay [1] was determined as 10 nM; in assay [2] (setting [5]), 231 nM. Further, the results for the Emax in assay [1] and in assay [2] (setting [4]) were 118% and 50%, respectively.

On to `COc1cccc([C@@](O)(C(=O)N2CCC3(CC2)C[C@@H]3CCCOc2ccc(C(=O)N(C)C)c(Cl)c2)C(F)(F)F)c1` (single isomer, unassigned) [Example 14-6, 2-chloro-N,N-dimethyl-4-(3-((S or R)-6-((R or S)-3,3,3-trifluoro-2-hydroxy-2-(3-methoxyphenyl)propanoyl)-6-azaspiro[2.5]octan-1-yl)propoxy)benzamide], for which the results for the EC50 in assay [1] and in assay [2] (setting [5]) were 6 nM and 162 nM, respectively. In addition, the values for the Emax in assay [1] and in assay [2] (setting [4]) were 116% and 23%, respectively.

`COc1cccc([C@](O)(C(=O)N2CCC3(CC2)C[C@@H]3CCCOc2ccc(C(=O)N(C)C)c(Cl)c2)C(F)(F)F)c1` (single isomer, unassigned) [Example 14-7, 2-chloro-N,N-dimethyl-4-(3-((S or R)-6-((S or R)-3,3,3-trifluoro-2-hydroxy-2-(3-methoxyphenyl)propanoyl)-6-azaspiro[2.5]octan-1-yl)propoxyl)benzamide]: the results for the EC50 in assay [1] and in assay [2] (setting [5]) were 9 nM and 186 nM, respectively. In addition, the results for the Emax in assay [1] and in assay [2] (setting [4]) were 100% and 46%, respectively.

For `CN(C)C(=O)c1ccc(OCCC[C@H]2CC23CCN(C(=O)[C@](O)(c2ccccc2)C(F)(F)F)CC3)nc1Cl` (single isomer, unassigned) [Example 15-1, 2-chloro-N,N-dimethyl-6-(3-((S or R)-6-((R or S)-3,3,3-trifluoro-2-hydroxy-2-phenylpropanoyl)-6-azaspiro[2.5]octan-1-yl)propoxy)nicotinamide], the EC50 was determined as 19 nM in assay [1] and 506 nM in assay [2] (LXR alpha IP). Besides, the Emax turned out to be 88% in assay [1] and 28% in assay [2] (setting [8]).

On to `CN(C)C(=O)c1ccc(OCCC[C@@H]2CC23CCN(C(=O)[C@@](O)(c2ccccc2)C(F)(F)F)CC3)nc1Cl` (single isomer, unassigned) [Example 15-2, 2-chloro-N,N-dimethyl-6-(3-((R or S)-6-((S or R)-3,3,3-trifluoro-2-hydroxy-2-phenylpropanoyl)-6-azaspiro[2.5]octan-1-yl)propoxy)nicotinamide], for which the EC50 in assay [1] amounted to 65 nM; in assay [2] (setting [7]), 654 nM. The Emax in assay [1] was 115%; in assay [2] (setting [4]), 32%.

As to `COc1cccc(C(O)(C(=O)N2CCC(C3CC3(C)COc3ccc(C(=O)N(C)C)c(Cl)c3)CC2)C(F)(F)F)c1` (single isomer, unassigned) [Example 16-1, 2-chloro-N,N-dimethyl-4-((1-methyl-2-(1-((R or S)-3,3,3-trifluoro-2-hydroxy-2-(3-methoxyphenyl)propanoyl)piperidin-4-yl)cyclopropyl)methoxy)benzamide], the results for the EC50 in assay [1] and in assay [2] (setting [5]) were 66 nM and 955 nM, respectively. In addition, the Emax in assay [1] amounted to 84%; in assay [2] (setting [4]), 18%.

As for `CN(C)C(=O)c1ccc(OCC2(CC3CCN(C(=O)C(O)(c4ccccc4)C(F)(F)F)CC3)CC2)cc1Cl` (single isomer, unassigned) [Example 17-1, (R or S)-2-chloro-N,N-dimethyl-4-((1-((1-(3,3,3-trifluoro-2-hydroxy-2-phenylpropanoyl)piperidin-4-yl)methyl)cyclopropyl)methoxy)benzamide], the EC50 amounted to 188 nM in assay [1] and 1630 nM in assay [2] (setting [5]). The results for the Emax in assay [1] and in assay [2] (setting [4]) were 77% and 19%, respectively.

Regarding `CN(C)C(=O)c1ccc(OC(F)(F)CCCC2CCN(C(=O)C(O)(c3ccccc3)C(F)(F)F)CC2)cc1Cl` (single isomer, unassigned) [Example 19-1, (R or S)-2-chloro-4-(1,1-difluoro-4-(1-(3,3,3-trifluoro-2-hydroxy-2-phenylpropanoyl)piperidin-4-yl)butoxy)-N,N-dimethylbenzamide], the EC50 came out at 86 nM in assay [1] and 1170 nM in assay [2] (setting [7]). The Emax was 75% in assay [1] and 23% in assay [2] (setting [6]).
